Measured values published in patent publication US8440710B2, “HSL inhibitors useful in the treatment of diabetes” (Hoffmann-La Roche Inc., priority 2009, dated 2013).

Molecular target: T1, human HSL (Homo sapiens, UniProt Q05469)
T1 construct: generate a full length human HSL ORF with a 3′-His6 tag; made in house; host or cells: High 5 insect cells (baculovirus, pFast-BAC)
T1 sequence (Q05469 1-1076): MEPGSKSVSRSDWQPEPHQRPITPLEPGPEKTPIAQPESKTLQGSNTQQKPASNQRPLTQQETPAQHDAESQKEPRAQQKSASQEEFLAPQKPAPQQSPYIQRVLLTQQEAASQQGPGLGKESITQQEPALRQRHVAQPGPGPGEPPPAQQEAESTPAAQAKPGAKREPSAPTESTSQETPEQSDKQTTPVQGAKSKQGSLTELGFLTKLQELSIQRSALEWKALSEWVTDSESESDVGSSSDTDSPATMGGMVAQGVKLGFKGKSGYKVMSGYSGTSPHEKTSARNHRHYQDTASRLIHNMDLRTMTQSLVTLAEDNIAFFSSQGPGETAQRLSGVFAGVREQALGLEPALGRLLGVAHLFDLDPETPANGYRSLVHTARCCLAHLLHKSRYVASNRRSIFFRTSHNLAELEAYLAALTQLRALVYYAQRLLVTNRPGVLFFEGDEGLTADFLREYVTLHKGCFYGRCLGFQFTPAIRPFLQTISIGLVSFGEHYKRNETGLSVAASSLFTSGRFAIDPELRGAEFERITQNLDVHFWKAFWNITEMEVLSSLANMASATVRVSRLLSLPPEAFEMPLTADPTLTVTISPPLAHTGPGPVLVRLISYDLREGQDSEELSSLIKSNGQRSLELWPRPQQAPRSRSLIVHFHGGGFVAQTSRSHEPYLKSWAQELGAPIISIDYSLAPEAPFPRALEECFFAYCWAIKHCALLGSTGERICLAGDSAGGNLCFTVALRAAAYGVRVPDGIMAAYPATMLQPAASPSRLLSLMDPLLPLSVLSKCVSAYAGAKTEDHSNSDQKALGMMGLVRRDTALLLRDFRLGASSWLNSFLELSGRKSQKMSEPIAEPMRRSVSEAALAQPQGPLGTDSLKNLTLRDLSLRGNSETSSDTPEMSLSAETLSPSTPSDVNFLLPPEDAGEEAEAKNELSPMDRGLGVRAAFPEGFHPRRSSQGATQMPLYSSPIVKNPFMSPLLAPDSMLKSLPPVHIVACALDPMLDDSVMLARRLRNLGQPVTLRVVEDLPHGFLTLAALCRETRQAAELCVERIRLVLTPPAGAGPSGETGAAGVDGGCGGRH
Experiment: Human Hormone-Sensitive Lipase (HSL) enzyme inhibition assay (colorimetric, DMPT substrate)
Format: biochemical
Conditions: human full length HSL-His6, 2,3-dimercapto-1-propanol tributyrate substrate, 37° C. 20 minutes, absorbance at 405 nm; read-out: HSL hum IC50
Summary of the method: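 Full-length human HSL with C-terminal His6, expressed in baculovirus-infected High 5 cells and Ni-NTA purified, was added (15 ug/ml stock) to 1.5 mM DMPT in 100 mM MOPS pH 7.2, 0.2 mg/ml fatty acid-free BSA containing compound. After 20 min at 37 °C, DTNB with SDS/Triton X-100 was added; A405 read after 15 min at RT.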

| Structure (SMILES) | IC50 [µM] |
| --- | --- |
| C[C@H](Oc1ccc(N2CC[C@]3(CC[C@@](O)(C(F)(F)F)CC3)C2=O)cn1)C(F)(F)F [Example 173, (5α,8α)-8-Hydroxy-8-trifluoromethyl-2-[6-((S)-2,2,2-trifluoro-1-methyl-ethoxy)-pyridin-3-yl]-2-aza-spiro[4.5]decan-1-one] | 0.05 |
| C[C@@H](Oc1ccc(N2CC[C@]3(CC[C@@](O)(C(F)(F)F)CC3)C2=O)cn1)C(F)(F)F [Example 174, (5α,8α)-8-Hydroxy-8-trifluoromethyl-2-[6-((R)-2,2,2-trifluoro-1-methyl-ethoxy)-pyridin-3-yl]-2-aza-spiro[4.5]decan-1-one] | 0.06 |
| CC[C@]1(O)CC[C@]2(CCN(c3ccc(O[C@H](C)C(F)(F)F)nc3)C2=O)CC1 [Example 175, (5α,8α)-8-Ethyl-8-hydroxy-2-[6-((R)-2,2,2-trifluoro-1-methyl-ethoxy)-pyridin-3-yl]-2-aza-spiro[4.5]decan-1-one] | 0.04 |
| CCC[C@]1(O)CC[C@]2(CCN(c3ccc(O[C@H](C)C(F)(F)F)nc3)C2=O)CC1 [Example 176, (5α,8α)-8-Hydroxy-8-propyl-2-[6-((R)-2,2,2-trifluoro-1-methyl-ethoxy)-pyridin-3-yl]-2-aza-spiro[4.5]decan-1-one] | 0.02 |
| CC(Oc1ccc(N2CC[C@]3(CC[C@@](O)(C(F)(F)F)CC3)C2=O)cc1)C(F)(F)F (stereo partly drawn) [Example 177, (5α,8α)-8-Hydroxy-8-trifluoromethyl-2-[4-(2,2,2-trifluoro-1-methyl-ethoxy)-phenyl]-2-aza-spiro[4.5]decan-1-one] | 0.03 |
| C[C@H](Oc1ccc(N2CC[C@]3(CC[C@@](O)(C(F)(F)F)CC3)C2=O)cc1)C(F)(F)F [Example 177a, (5α,8α)-8-Hydroxy-8-trifluoromethyl-2-[4-((S)-2,2,2-trifluoro-1-methyl-ethoxy)-phenyl]-2-aza-spiro[4.5]decan-1-one] | 0.04 |
| C[C@@H](Oc1ccc(N2CC[C@]3(CC[C@@](O)(C(F)(F)F)CC3)C2=O)cc1)C(F)(F)F [Example 177b, (5α,8α)-8-Hydroxy-8-trifluoromethyl-2-[4-((R)-2,2,2-trifluoro-1-methyl-ethoxy)-phenyl]-2-aza-spiro[4.5]decan-1-one] | 0.04 |
| O=C1N(c2ccc(OCC(F)(F)F)nc2)CC[C@]12CC[C@@](O)(C(F)(F)F)CC2 [Example 178, (5α,8α)-8-Hydroxy-2-[6-(2,2,2-trifluoro-ethoxy)-pyridin-3-yl]-8-trifluoromethyl-2-aza-spiro[4.5]decan-1-one] | 0.15 |
| C[C@@H](Oc1ccc(N2CC[C@]3(CC[C@@](O)(C4CC4)CC3)C2=O)cn1)C(F)(F)F [Example 179, (5α,8α)-8-Cyclopropyl-8-hydroxy-2-[6-((R)-2,2,2-trifluoro-1-methyl-ethoxy)-pyridin-3-yl]-2-aza-spiro[4.5]decan-1-one] | 0.03 |
| C[C@H](Oc1ccc(N2CC[C@]3(CC[C@@](O)(C4CC4)CC3)C2=O)cn1)C(F)(F)F [Example 180, (5α,8α)-8-Cyclopropyl-8-hydroxy-2-[6-((S)-2,2,2-trifluoro-1-methyl-ethoxy)-pyridin-3-yl]-2-aza-spiro[4.5]decan-1-one] | 0.03 |
| CC(Oc1ccc(N2CC[C@]3(CC[C@@](O)(C4CC4)CC3)C2=O)cc1)C(F)(F)F (stereo partly drawn) [Example 181, (5α,8α)-8-Cyclopropyl-8-hydroxy-2-[4-(2,2,2-trifluoro-1-methyl-ethoxy)-phenyl]-2-aza-spiro[4.5]decan-1-one] | 0.02 |
| C[C@@H](Oc1ccc(N2CC[C@]3(CC[C@@](O)(C4CC4)CC3)C2=O)cc1)C(F)(F)F [Example 181a, (5α,8α)-8-Cyclopropyl-8-hydroxy-2-[4-((R)-2,2,2-trifluoro-1-methyl-ethoxy)-phenyl]-2-aza-spiro[4.5]decan-1-one] | 0.02 |
| CCC[C@]1(O)CC[C@]2(CCN(c3ccc(OS(=O)(=O)C4CC4)cc3)C2=O)CC1 [Example 182, 4-((5α,8α)-8-hydroxy-1-oxo-8-propyl-2-aza-spiro[4.5]decan-2-yl)phenyl cyclopropanesulfonate] | 0.03 |
| CC[C@]1(O)CC[C@]2(CCN(c3ccc(OS(=O)(=O)C4CC4)cc3)C2=O)CC1 [Example 183, 4-((5α,8α)-8-ethyl-8-hydroxy-1-oxo-2-aza-spiro[4.5]decan-2-yl)phenyl cyclopropanesulfonate] | 0.07 |
| CCC[C@]1(O)CC[C@]2(CCN(c3ccc(OC(C)C)cc3)C2=O)CC1 [Example 184, (5α,8α)-8-Hydroxy-2-(4-isopropoxyphenyl)-8-propyl-2-aza-spiro[4.5]decan-1-one] | 0.02 |
| CCC[C@]1(O)CC[C@@]2(CCN(c3ccc(OS(C)(=O)=O)cc3)C2=O)CC1 [Example 185, 4-((5α,8β))-8-hydroxy-1-oxo-8-propyl-2-aza-spiro[4.5]decan-2-yl)phenyl methanesulfonate] | 0.05 |
| CC[C@]1(O)CC[C@]2(CCN(c3ccc(OC(C)C)cc3)C2=O)CC1 [Example 186, (5α,8α)-8-Ethyl-8-hydroxy-2-(4-isopropoxy-phenyl)-2-aza-spiro[4.5]decan-1-one] | 0.02 |
| CCC[C@]1(O)CC[C@]2(CCN(c3ccc(S(=O)(=O)CC)cc3)C2=O)CC1 [Example 187, (5α,8α)-2-(4-Ethanesulfonyl-phenyl)-8-hydroxy-8-propyl-2-aza-spiro[4.5]decan-1-one] | 0.65 |
| CCC[C@]1(O)CC[C@]2(CCN(Cc3ccc(OC(F)(F)F)cc3)C2=O)CC1 [Example 188, (5α,8α)-8-hydroxy-8-propyl-2-(4-(trifluoromethoxy)benzyl)-2-aza-spiro[4.5]decan-1-one] | 0.08 |
| O=C1N(c2ccc(OS(=O)(=O)C3CC3)cc2)CC[C@]12CC[C@@](O)(C(F)(F)F)CC2 [Example 189, 4-((5α,8α)-8-hydroxy-1-oxo-8-(trifluoromethyl)-2-aza-spiro[4.5]decan-2-yl)phenyl cyclopropanesulfonate] | 0.1 |
| CCCC[C@]1(O)CC[C@]2(CCN(c3ccc([C@@H](O)C(F)(F)F)cc3)C2=O)CC1 [Example 190, (5α,8α)-8-butyl-8-hydroxy-2-(4-((R)-2,2,2-trifluoro-1-hydroxyethyl)phenyl)-2-aza-spiro[4.5]decan-1-one] | 0.01 |
| CC(C)[C@]1(O)CC[C@]2(CCN(c3ccc(C(O)C(C)(F)F)cc3)C2=O)CC1 (stereo partly drawn) [Example 191, (5α,8α)-2-(4-(2,2-difluoro-1-hydroxypropyl)phenyl)-8-hydroxy-8-isopropyl-2-aza-spiro[4.5]decan-1-one] | 0.05 |
| CCC[C@]1(O)CC[C@]2(CCN(c3ccc(C(O)C(C)(F)F)cc3)C2=O)CC1 (stereo partly drawn) [Example 192, (5α,8α)-2-(4-(2,2-difluoro-1-hydroxypropyl)phenyl)-8-hydroxy-8-propyl-2-aza-spiro[4.5]decan-1-one] | 0.05 |
| CC(F)(F)C(O)c1ccc(N2CC[C@]3(CC[C@@](O)(CCC(F)(F)F)CC3)C2=O)cc1 (stereo partly drawn) [Example 193, (5α,8α)-2-(4-(2,2-difluoro-1-hydroxypropyl)phenyl)-8-hydroxy-8-(3,3,3-trifluoropropyl)-2-aza-spiro[4.5]decan-1-one] | 0.03 |
| O=C1N(c2ccc([C@@H](O)C(F)(F)F)cc2)CC[C@]12CC[C@@](O)(CCC(F)(F)F)CC2 [Example 194, (5α,8α)-8-hydroxy-2-(4-((R)-2,2,2-trifluoro-1-hydroxyethyl)phenyl)-8-(3,3,3-trifluoropropyl)-2-aza-spiro[4.5]decan-1-one] | 0.02 |
| CCC[C@]1(O)CC[C@]2(CCN(c3ccc(C(O)C(F)F)cc3)C2=O)CC1 (stereo partly drawn) [Example 195, (5α,8α)-2-(4-(2,2-difluoro-1-hydroxyethyl)phenyl)-8-hydroxy-8-propyl-2-aza-spiro[4.5]decan-1-one] | 0.11 |
| CC(C)Oc1ccc(N2CC[C@]3(CC[C@@](O)(C(C)C)CC3)C2=O)cc1 [Example 196, (5α,8α)-8-hydroxy-2-(4-isopropoxyphenyl)-8-isopropyl-2-aza-spiro[4.5]decan-1-one] | 0.01 |
| CC(C)Oc1ccc(N2CC[C@]3(CC[C@@](O)(C4CC4)CC3)C2=O)cc1 [Example 197, (5α,8α)-8-cyclopropyl-8-hydroxy-2-(4-isopropoxyphenyl)-2-aza-spiro[4.5]decan-1-one] | 0.02 |
